20 molecules from patent US20230365559A1, “NOVEL AMINOPYRIDINES AND THEIR USE IN TREATING CANCER” (priority 2020, published 2023) can be followed below.

For orientation: IC50 means the point on the concentration scale where inhibition reaches its midpoint.

Where only a bound is given, the exact number is not on record here.

Assay [1] addresses human DNA-PK (Homo sapiens, UniProt P78527). As to the kind of experiment: Inhibition of DNA-PKcs kinase activity, HotSpot assay (Reaction Biology), [γ-33P]-ATP phosphorylation of peptide substrate. Particulars: 10 μM ATP, 10 μg/ml DNA; mean of two replicates; Table 12; read-out: Inhibition of kinase activity (as IC50) DNA-PK (converted). The class given is biochemical.
The target of assay [2] is human PI3Kα (p110α/p85α) (Homo sapiens, UniProt P42336). As to the kind of experiment: Inhibition of PI3Kα kinase activity, ADP-Glo Assay (Reaction Biology). The format is biochemical. The conditions noted are these: 10 μM ATP; mean of two replicates; Table 12; read-out: Inhibition of kinase activity (as IC50) PICK. (In general: In ADP-Glo the light output rises with the ADP produced.)
Chain of human PI3Kα (p110α/p85α) (P42336 whole entry): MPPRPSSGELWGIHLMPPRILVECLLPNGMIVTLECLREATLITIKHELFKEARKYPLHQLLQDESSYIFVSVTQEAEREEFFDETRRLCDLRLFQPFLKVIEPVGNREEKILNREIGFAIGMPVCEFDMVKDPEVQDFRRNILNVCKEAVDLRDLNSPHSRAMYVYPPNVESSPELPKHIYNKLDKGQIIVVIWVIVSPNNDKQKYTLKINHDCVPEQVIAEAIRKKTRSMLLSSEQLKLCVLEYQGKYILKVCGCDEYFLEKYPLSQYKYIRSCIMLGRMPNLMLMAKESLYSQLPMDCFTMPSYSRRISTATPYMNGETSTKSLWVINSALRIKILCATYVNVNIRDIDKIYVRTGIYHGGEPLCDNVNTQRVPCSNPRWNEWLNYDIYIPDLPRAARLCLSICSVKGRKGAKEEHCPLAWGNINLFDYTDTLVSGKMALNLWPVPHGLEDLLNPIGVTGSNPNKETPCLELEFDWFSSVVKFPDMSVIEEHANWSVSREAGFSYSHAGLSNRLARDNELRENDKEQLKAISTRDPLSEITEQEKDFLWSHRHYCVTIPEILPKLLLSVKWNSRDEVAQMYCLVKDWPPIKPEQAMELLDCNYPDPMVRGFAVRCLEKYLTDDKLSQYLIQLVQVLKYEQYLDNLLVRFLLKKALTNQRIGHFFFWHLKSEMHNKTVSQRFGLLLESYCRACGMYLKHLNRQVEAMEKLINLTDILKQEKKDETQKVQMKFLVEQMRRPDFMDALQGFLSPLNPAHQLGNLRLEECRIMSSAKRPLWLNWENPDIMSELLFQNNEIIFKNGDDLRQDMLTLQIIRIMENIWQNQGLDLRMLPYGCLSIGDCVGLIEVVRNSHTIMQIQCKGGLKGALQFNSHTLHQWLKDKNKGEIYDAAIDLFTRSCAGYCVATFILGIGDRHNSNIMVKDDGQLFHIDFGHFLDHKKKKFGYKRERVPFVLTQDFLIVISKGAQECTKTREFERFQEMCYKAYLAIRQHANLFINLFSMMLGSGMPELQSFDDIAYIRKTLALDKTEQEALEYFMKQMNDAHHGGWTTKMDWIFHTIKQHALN
Chain of human PI3Kα (p110α/p85α) (P27986 whole entry partner): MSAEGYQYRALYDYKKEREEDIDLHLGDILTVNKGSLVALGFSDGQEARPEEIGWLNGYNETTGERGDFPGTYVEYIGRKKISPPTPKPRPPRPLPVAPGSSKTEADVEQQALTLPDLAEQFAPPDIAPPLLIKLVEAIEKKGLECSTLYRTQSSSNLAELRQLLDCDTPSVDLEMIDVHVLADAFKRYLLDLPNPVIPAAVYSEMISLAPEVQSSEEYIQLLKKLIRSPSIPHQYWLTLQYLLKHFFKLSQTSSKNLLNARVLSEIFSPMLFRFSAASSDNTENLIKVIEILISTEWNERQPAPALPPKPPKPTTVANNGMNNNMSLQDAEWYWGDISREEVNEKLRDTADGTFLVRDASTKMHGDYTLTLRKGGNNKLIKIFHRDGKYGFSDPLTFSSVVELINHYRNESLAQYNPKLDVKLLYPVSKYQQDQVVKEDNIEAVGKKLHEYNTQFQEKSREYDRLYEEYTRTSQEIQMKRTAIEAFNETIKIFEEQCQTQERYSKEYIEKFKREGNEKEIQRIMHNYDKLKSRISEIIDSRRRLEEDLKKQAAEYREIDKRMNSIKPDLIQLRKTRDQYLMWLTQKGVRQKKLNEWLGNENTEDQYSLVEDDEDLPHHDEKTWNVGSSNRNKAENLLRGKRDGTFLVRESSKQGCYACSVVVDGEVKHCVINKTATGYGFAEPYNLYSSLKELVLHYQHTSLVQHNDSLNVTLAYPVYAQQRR

The test system of assay [3] is UT-SCC-54C cells. The assay can be described thus: Radiosensitisation of UT-SCC-54C HNSCC cells, regrowth (sulforhodamine B) assay, oxic (Table 16). The class given is cell-based, human. Particulars: for IC50: Homo sapiens, read-out: IC50; for S50: compound in combination with 3 Gy of radiation, 50% inhibition of regrowth fraction, UT-SCC-54C.
In assay [4] the target is human mTOR (Homo sapiens, UniProt P42345). As to the kind of experiment: Inhibition of mTOR kinase activity, HotSpot assay, phosphorylation of 4EPB1. The conditions noted are these: Inhibition of kinase activity (as IC50) mTOR (nM), 10 μM ATP; mean of two replicates; Table 12.

On to `Cc1ccc(S(C)(=O)=O)cc1Nc1cc2c(cn1)n(C)c(=O)n2C1CCOCC1` [Compound 123, 3-Methyl-6-((2-methyl-5-(methylsulfonyl)phenyl)amino)-1-(tetrahydro-2H-pyran-4-yl)-1,3-dihydro-2H-imidazo[4,5-c]pyridin-2-one], for which the IC50 was 0.13 nM in assay [1], 0.678 µM in assay [2], above 10 µM in assay [3] and above 100000 nM in assay [4]. In addition, in assay [3] (oxic), the “S50” value came out at 0.74 µM.

Turning to `Cc1nc2ccc(Nc3cc4c(cn3)n(C)c(=O)n4C3CCOCC3)cc2o1` [Compound 128, 3-Methyl-6-((2-methylbenzo[d]oxazol-6-yl)amino)-1-(tetrahydro-2H-pyran-4-yl)-1,3-dihydro-2H-imidazo[4,5-c]pyridin-2-one], the IC50 in assay [1] was 1420 nM; in assay [2], above 10 µM; in assay [4], above 100000 nM.

Regarding `Cc1cc2c(cc1Nc1cc3c(cn1)n(C)c(=O)n3C1CCOCC1)OCO2` [Compound 130, 3-Methyl-6-((6-methylbenzo[d][1,3]dioxol-5-yl)amino)-1-(tetrahydro-2H-pyran-4-yl)-1,3-dihydro-2H-imidazo[4,5-c]pyridin-2-one], the IC50 in assay [1] was 3.05 nM; in assay [2], 2.53 µM; in assay [3], above 10 µM; in assay [4], 10800 nM. The “S50” value in assay [3] (oxic) worked out at 0.50 µM.

Consider `Cc1nc2cc(Nc3cc4c(cn3)n(C)c(=O)n4C3CCOCC3)c(C)cc2o1` [Compound 131, 6-((2,6-Dimethylbenzo[d]oxazol-5-yl)amino)-3-methyl-1-(tetrahydro-2H-pyran-4-yl)-1,3-dihydro-2H-imidazo[4,5-c]pyridin-2-one], for which the IC50 was 47.7 nM in assay [1], 11 µM in assay [2], above 10 µM in assay [3] and 13400 nM in assay [4]. The “S50” value in assay [3] (oxic) is 4.8 µM.

As for `Cc1cc2ncc(C(=O)O)n2cc1Nc1cc2c(cn1)n(C)c(=O)n2C1CCOCC1` [Compound 136, 7-Methyl-6-((3-methyl-2-oxo-1-(tetrahydro-2H-pyran-4-yl)-2,3-dihydro-1H-imidazo[4,5-c]pyridin-6-yl)amino)imidazo[1,2-a]pyridine-3-carboxylic acid], the concentration for half-maximal inhibition (IC50) was 3.6 nM in assay [1], 0.151 µM in assay [2] and 19600 nM in assay [4].

As to `Cc1cc(Cl)ccc1Nc1cc2c(cn1)n(C)c(=O)n2CCC1CCOCC1` [Compound 147, 6-((4-Chloro-2-methylphenyl)amino)-3-methyl-1-(2-(tetrahydro-2H-pyran-4-yl)ethyl)-1,3-dihydro-2H-imidazo[4,5-c]pyridin-2-one], the IC50 was 11 nM in assay [1], 0.49 µM in assay [2], above 10 µM in assay [3] and 7900 nM in assay [4]. Besides, the “S50” value in assay [3] (oxic) is 0.97 µM.

As to `COC1CCC(n2c(=O)n(C)c3cnc(Nc4ccc(Cl)cc4C)cc32)CC1` (stereo not shown) [Compound 173, 6-((4-Chloro-2-methylphenyl)amino)-1-(4-methoxycyclohexyl)-3-methyl-1,3-dihydro-2H-imidazo[4,5-c]pyridin-2-one], the IC50 in assay [1] was 0.64 nM; in assay [2], 2.17 µM; in assay [3], above 10 µM; in assay [4] it was 27500 nM. Also, the “S50” value in assay [3] (oxic) worked out at 0.85 µM.

On to `COc1ccc(-n2c(=O)n(C)c3cnc(Nc4cc(S(C)(=O)=O)ccc4C)cc32)cc1` [Compound 197, 1-(4-Methoxyphenyl)-3-methyl-6-((2-methyl-5-(methylsulfonyl)phenyl)amino)-1,3-dihydro-2H-imidazo[4,5-c]pyridin-2-one], for which the IC50 in assay [1] is 0.09 nM; in assay [2], 0.033 µM; in assay [4], 33400 nM.

In the case of `COc1ccc(-n2c(=O)n(C)c3cnc(Nc4ccc(O)cc4C)cc32)cc1` [Compound 200, 6-((4-Hydroxy-2-methylphenyl)amino)-1-(4-methoxyphenyl)-3-methyl-1,3-dihydro-2H-imidazo[4,5-c]pyridin-2-one], the IC50 in assay [1] was below 0.05 nM; in assay [2] it was 0.264 µM; in assay [3] it was above 10 µM; in assay [4], 19500 nM. The “S50” value in assay [3] (oxic) is 0.31 µM.

For the molecule `COc1cc(C)c(Nc2cc3c(cn2)n(C)c(=O)n3C2CCOCC2)cc1OC` [Compound 216, 6-((4,5-Dimethoxy-2-methylphenyl)amino)-3-methyl-1-(tetrahydro-2H-pyran-4-yl)-1,3-dihydro-2H-imidazo[4,5-c]pyridin-2-one], the IC50 in assay [1] was 390 nM; in assay [2], 4.62 µM; in assay [3], above 10 µM; in assay [4], 42700 nM. Also, the “S50” value in assay [3] (oxic) stood at 7.4 µM.

Consider `Cc1cc(Cl)cnc1Nc1cc2c(cn1)n(C)c(=O)n2C1CCOCC1` [Compound 217, 6-((5-Chloro-3-methylpyridin-2-yl)amino)-3-methyl-1-(tetrahydro-2H-pyran-4-yl)-1,3-dihydro-2H-imidazo[4,5-c]pyridin-2-one], for which the concentration for half-maximal inhibition (IC50) was 52 nM in assay [1], 33.1 µM in assay [2], above 10 µM in assay [3] and 76300 nM in assay [4]. The “S50” value in assay [3] (oxic) came to 3.9 µM.

`Cc1cc(Cl)ncc1Nc1cc2c(cn1)n(C)c(=O)n2C1CCOCC1` [Compound 218, 6-((6-Chloro-4-methylpyridin-3-yl)amino)-3-methyl-1-(tetrahydro-2H-pyran-4-yl)-1,3-dihydro-2H-imidazo[4,5-c]pyridin-2-one]: the IC50 is 94 nM in assay [1], 14.2 µM in assay [2], above 10 µM in assay [3] and 68400 nM in assay [4]. In addition, the “S50” value in assay [3] (oxic) worked out at 3.1 µM.

For the molecule `Cc1nc(Cl)ccc1Nc1cc2c(cn1)n(C)c(=O)n2C1CCOCC1` [Compound 219, 6-((6-Chloro-2-methylpyridin-3-yl)amino)-3-methyl-1-(tetrahydro-2H-pyran-4-yl)-1,3-dihydro-2H-imidazo[4,5-c]pyridin-2-one], the half-maximal inhibitory concentration (IC50) in assay [1] was 270 nM; in assay [2], 20.8 µM; in assay [4] it was above 100000 nM.

Consider `COc1cnc(Nc2cc3c(cn2)n(C)c(=O)n3C2CCOCC2)c(C)c1` [Compound 220, 6-((5-Methoxy-3-methylpyridin-2-yl)amino)-3-methyl-1-(tetrahydro-2H-pyran-4-yl)-1,3-dihydro-2H-imidazo[4,5-c]pyridin-2-one], for which the half-maximal inhibitory concentration (IC50) in assay [1] is 170 nM; in assay [2], 24 µM; in assay [3], above 10 µM; in assay [4], above 100000 nM. The “S50” value in assay [3] (oxic) is 4.4 µM.

In the case of `COc1ccc(Nc2cc3c(cn2)n(C)c(=O)n3C2CCOCC2)c(C)n1` [Compound 221, 6-((6-Methoxy-2-methylpyridin-3-yl)amino)-3-methyl-1-(tetrahydro-2H-pyran-4-yl)-1,3-dihydro-2H-imidazo[4,5-c]pyridin-2-one], the 50% inhibitory concentration (IC50) was 441 nM in assay [1], 9.36 µM in assay [2] and above 100000 nM in assay [4].

`COc1ccc(-c2ccc(Nc3cc4c(cn3)n(C)c(=O)n4C3CCOCC3)cc2)cn1` [Compound 223, 6-((4-(6-Methoxypyridin-3-yl)phenyl)amino)-3-methyl-1-(tetrahydro-2H-pyran-4-yl)-1,3-dihydro-2H-imidazo[4,5-c]pyridin-2-one]: the IC50 in assay [1] was 3940 nM; in assay [2], 11.8 µM; in assay [4], 41200 nM.

Consider `Cc1cc2nccnc2cc1Nc1cc2c(cn1)n(C)c(=O)n2C1CCOCC1` [Compound 225, 3-Methyl-6-((7-methylquinoxalin-6-yl)amino)-1-(tetrahydro-2H-pyran-4-yl)-1,3-dihydro-2H-imidazo[4,5-c]pyridin-2-one], for which the IC50 in assay [1] was 3.4 nM; in assay [2], 1.65 µM; in assay [3], above 10 µM; in assay [4] it was 58500 nM. Further, the “S50” value in assay [3] (oxic) is 0.27 µM.

On to `COc1ccc(N(C(=O)OCc2cnc([N+](=O)[O-])n2C)c2cc3c(cn2)n(C)c(=O)n3C2CCCC2)c(C)c1` [Compound 247, (1-Methyl-2-nitro-1H-imidazol-5-yl)methyl (1-cyclopentyl-3-methyl-2-oxo-2,3-dihydro-1H-imidazo[4,5-c]pyridin-6-yl)(4-methoxy-2-methylphenyl)carbamate], for which the IC50 is 871 nM in assay [1], above 10 µM in assay [2], above 10 µM in assay [3] and above 100000 nM in assay [4]. Further, in assay [3] (oxic), the “S50” value is above 10 µM. In addition, in assay [3] (oxic, 0 or 3 Gy, regrowth assay), the “radiosensitisation / differential growth inhibition of UT-SCC-54C cells” value is listed as “did not display any differential growth inhibition”.

On to `COc1ccc(Nc2cc3c(cn2)n(C)c(=O)n3C2CCN(C(=O)OCc3cnc([N+](=O)[O-])n3C)CC2)c(C)c1` [Compound 252, (1-Methyl-2-nitro-1H-imidazol-5-yl)methyl 4-(6-((4-methoxy-2-methylphenyl)amino)-3-methyl-2-oxo-2,3-dihydro-1H-imidazo[4,5-c]pyridin-1-yl)piperidine-1-carboxylate], for which the figures for the IC50 in assay [1], in assay [2] and in assay [4] were 104 nM, 0.74 µM and 15600 nM, respectively.

As for `COc1ccc(Nc2cc3c(cn2)n(C)c(=O)n3C2CCC(NC(=O)OCc3cnc([N+](=O)[O-])n3C)CC2)c(C)c1` (stereo not shown) [Compound 253, (1-Methyl-2-nitro-1H-imidazol-5-yl)methyl (4-(6-((4-methoxy-2-methylphenyl)amino)-3-methyl-2-oxo-2,3-dihydro-1H-imidazo[4,5-c]pyridin-1-yl)cyclohexyl)carbamate], the IC50 is 58 nM in assay [1], 0.296 µM in assay [2] and 11400 nM in assay [4].
